Target: T1, COX-1 (cyclooxygenase-1) (Ovis aries, UniProt P05979)
T1 construct: gene PTGS1
T1 sequence (P05979 25-600): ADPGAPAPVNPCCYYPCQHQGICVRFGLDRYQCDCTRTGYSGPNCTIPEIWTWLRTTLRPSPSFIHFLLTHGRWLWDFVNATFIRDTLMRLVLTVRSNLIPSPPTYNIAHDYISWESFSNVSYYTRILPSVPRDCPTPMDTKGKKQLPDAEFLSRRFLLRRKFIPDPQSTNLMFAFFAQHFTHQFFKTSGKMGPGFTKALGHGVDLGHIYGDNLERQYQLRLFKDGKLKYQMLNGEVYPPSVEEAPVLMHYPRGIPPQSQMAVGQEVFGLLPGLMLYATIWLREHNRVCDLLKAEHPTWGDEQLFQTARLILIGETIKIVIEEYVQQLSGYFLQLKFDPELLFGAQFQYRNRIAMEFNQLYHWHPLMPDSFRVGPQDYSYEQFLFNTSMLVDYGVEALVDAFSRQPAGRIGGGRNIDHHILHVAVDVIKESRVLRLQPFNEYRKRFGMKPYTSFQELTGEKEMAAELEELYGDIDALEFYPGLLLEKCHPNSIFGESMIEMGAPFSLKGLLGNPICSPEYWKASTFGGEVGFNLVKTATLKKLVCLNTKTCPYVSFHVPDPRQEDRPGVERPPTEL
Test: biochemical

COc1cc(C2Oc3cc(-c4oc5cc(O)cc(O)c5c(=O)c4O)ccc3OC2CO)ccc1O (racemic) [2,3-dehydrosilybin]
IC50: 25.2 ± 10.4 µM
